In patent US20230085307A1, “PYRIDAZINONE COMPOUND AND HERBICIDE” (NISSAN CHEMICAL CORPORATION, priority 2019, published 2023):

Tests used:
redroot pigweed = test: Test Example 4: herbicidal effect by soil treatment (Table 19, symbol N); type: in vivo, redroot pigweed (Amaranthus retroflexus); conditions: 320 g/ha
Summary of the method: (§1)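 Step 1: sow seeds in sterilized diluvial soil, cover ~1.5 cm. Step 2: spray diluted emulsion onto soil surface at predetermined rate. Step 3: greenhouse, 25–30° C, three weeks. Step 4: grade effect on each plant by earlier criteria.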

southern crabgrass [1] = test: Test Example 5: herbicidal effect by foliage application, plastic box (Table 20, symbol F); type: in vivo, southern crabgrass (Digitaria ciliaris); conditions: foliage application, 320 g/ha, 3 weeks after application
Summary of the method: (§2)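 Foliar spray test: emulsion formulation diluted in water to a set application rate, sprayed onto 14-day-old plants raised in diluvial soil at 25° C to 30° C under glass. Both herbicidal effect and crop effect rated visually three weeks later.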

late watergrass = test: Test Example 1: herbicidal activity, application before weed generation under submerged conditions (Table 16, symbol A); type: in vivo, late watergrass (Echinochloa oryzicola); conditions: 320 g/ha applied herbicide
Summary of the method: (§3)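 Submerged Wagner pots (alluvial soil, 4 cm water) sown with weed seeds and planted with 2.5-leaf rice seedlings; emulsifiable concentrate diluted in water applied to water surface on sowing day. Held in greenhouse at 25-30 °C; injury scored 0-5 by herbicidal rate after three weeks.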

windgrass [2] = test: Test Example 5: herbicidal effect by foliage application, plastic box (Table 20, symbol L); type: in vivo, windgrass (Apera spica-venti); conditions: foliage application, 320 g/ha, 3 weeks after application
Summary of the method: as §2

Italian ryegrass [3] = test: Test Example 5: herbicidal effect by foliage application, plastic box (Table 20, symbol K); type: in vivo, Italian ryegrass (Lolium multiflorum); conditions: foliage application, 320 g/ha, 3 weeks after application
Summary of the method: as §2

lambsquarters [4] = test: Test Example 4: herbicidal effect by soil treatment (Table 19, symbol O); type: in vivo, lambsquarters (Chenopodium album); conditions: 320 g/ha
Summary of the method: as §1

velvetleaf [5] = test: Test Example 5: herbicidal effect by foliage application, plastic box (Table 20, symbol M); type: in vivo, velvetleaf (Abutilon theophrasti); conditions: foliage application, 320 g/ha, 3 weeks after application
Summary of the method: as §2

blackgrass [6] = test: Test Example 5: herbicidal effect by foliage application, plastic box (Table 20, symbol J); type: in vivo, blackgrass (Alopecurus myosuroides); conditions: foliage application, 320 g/ha, 3 weeks after application
Summary of the method: as §2

green foxtail [7] = test: Test Example 4: herbicidal effect by soil treatment (Table 19, symbol G); type: in vivo, green foxtail (Setaria viridis); conditions: 320 g/ha
Summary of the method: as §1

persian speedwell [8] = test: Test Example 5: herbicidal effect by foliage application, plastic box (Table 20, symbol R); type: in vivo, Persian speedwell (Veronica persica); conditions: foliage application, 320 g/ha, 3 weeks after application
Summary of the method: as §2

oval-leafed pondweed = test: Test Example 1: herbicidal activity, application before weed generation under submerged conditions (Table 16, symbol C); type: in vivo, oval-leafed pondweed (Monochoria vaginalis); conditions: 320 g/ha applied herbicide
Summary of the method: as §3

barnyard grass [9] = test: Test Example 5: herbicidal effect by foliage application, plastic box (Table 20, symbol H); type: in vivo, barnyard grass (Echinochloa crus-galli); conditions: foliage application, 320 g/ha, 3 weeks after application
Summary of the method: as §2

barnyard grass [10] = test: Test Example 3: herbicidal effect by foliage application, Wagner pot (Table 18, symbol H); type: in vivo, barnyard grass (Echinochloa crus-galli); conditions: 320 g/ha
Summary of the method: (§4)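 Plants were sown in alluvial soil held under 0.1–0.5 cm standing water and grown 14 days in a greenhouse at 25–30 °C. An emulsifiable formulation, water-diluted to the set dose, was then sprayed onto the foliage, and effects were scored three weeks later using previously defined criteria.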

lambsquarters [11] = test: Test Example 5: herbicidal effect by foliage application, plastic box (Table 20, symbol O); type: in vivo, lambsquarters (Chenopodium album); conditions: foliage application, 320 g/ha, 3 weeks after application
Summary of the method: as §2

Italian ryegrass [12] = test: Test Example 4: herbicidal effect by soil treatment (Table 19, symbol K); type: in vivo, Italian ryegrass (Lolium multiflorum); conditions: 320 g/ha
Summary of the method: as §1

velvetleaf [13] = test: Test Example 4: herbicidal effect by soil treatment (Table 19, symbol M); type: in vivo, velvetleaf (Abutilon theophrasti); conditions: 320 g/ha
Summary of the method: as §1

rice flat sedge = test: Test Example 3: herbicidal effect by foliage application, Wagner pot (Table 18, symbol E); type: in vivo, rice flat sedge (Cyperus iria); conditions: 320 g/ha
Summary of the method: as §4

southern crabgrass [14] = test: Test Example 4: herbicidal effect by soil treatment (Table 19, symbol F); type: in vivo, southern crabgrass (Digitaria ciliaris); conditions: 320 g/ha
Summary of the method: as §1

green foxtail [15] = test: Test Example 5: herbicidal effect by foliage application, plastic box (Table 20, symbol G); type: in vivo, green foxtail (Setaria viridis); conditions: foliage application, 320 g/ha, 3 weeks after application
Summary of the method: as §2

barnyard grass [16] = test: Test Example 4: herbicidal effect by soil treatment (Table 19, symbol H); type: in vivo, barnyard grass (Echinochloa crus-galli); conditions: 320 g/ha
Summary of the method: as §1

windgrass [17] = test: Test Example 4: herbicidal effect by soil treatment (Table 19, symbol L); type: in vivo, windgrass (Apera spica-venti); conditions: 320 g/ha
Summary of the method: as §1

blackgrass [18] = test: Test Example 4: herbicidal effect by soil treatment (Table 19, symbol J); type: in vivo, blackgrass (Alopecurus myosuroides); conditions: 320 g/ha
Summary of the method: as §1

chickweed = test: Test Example 4: herbicidal effect by soil treatment (Table 19, symbol P); type: in vivo, common chickweed (Stellaria media); conditions: 320 g/ha
Summary of the method: as §1

Chinese sprangletop = test: Test Example 3: herbicidal effect by foliage application, Wagner pot (Table 18, symbol D); type: in vivo, chinese sprangletop (Leptochloa chinensis); conditions: 320 g/ha
Summary of the method: as §4

Japanese bulrush = test: Test Example 1: herbicidal activity, application before weed generation under submerged conditions (Table 16, symbol B); type: in vivo, Japanese bulrush (Schoenoplectus juncoides); conditions: 320 g/ha applied herbicide
Summary of the method: as §3

wild oat [19] = test: Test Example 5: herbicidal effect by foliage application, plastic box (Table 20, symbol I); type: in vivo, wild oat (Avena fatua); conditions: foliage application, 320 g/ha, 3 weeks after application
Summary of the method: as §2

wild oat [20] = test: Test Example 4: herbicidal effect by soil treatment (Table 19, symbol I); type: in vivo, wild oat (Avena fatua); conditions: 320 g/ha
Summary of the method: as §1

persian speedwell [21] = test: Test Example 4: herbicidal effect by soil treatment (Table 19, symbol R); type: in vivo, Persian speedwell (Veronica persica); conditions: 320 g/ha
Summary of the method: as §1

SMILES: CCCCCCOc1ccc(-c2sc3ccc(F)cc3c2-c2c(OC(=O)CCC)c(C)nn(C)c2=O)cc1 [2-041]
- herbicidal effect rating, N: redroot pigweed (redroot pigweed): 0 (Herbicidal rate of 5% or less (almost no effect))
- effect on southern crabgrass (F) (southern crabgrass [1]): 0 (Herbicidal rate of 5% or less (almost no effect))
- Herbicidal effect on A: late watergrass (grade 0-5) (late watergrass): 3 (Herbicidal rate of 40% or more and less than 70%)
- effect on windgrass (L) (windgrass [2]): 0 (Herbicidal rate of 5% or less (almost no effect))
- effect on Italian ryegrass (K) (Italian ryegrass [3]): 0 (Herbicidal rate of 5% or less (almost no effect))
- herbicidal effect rating, O: lambsquarters (lambsquarters [4]): 2 (Herbicidal rate of 20% or more and less than 40%)
- effect on velvetleaf (M) (velvetleaf [5]): 1 (Herbicidal rate of 5% or more and less than 20%)
- effect on blackgrass (J) (blackgrass [6]): 0 (Herbicidal rate of 5% or less (almost no effect))
- herbicidal effect rating, G: green foxtail (green foxtail [7]): 0 (Herbicidal rate of 5% or less (almost no effect))
- effect on persian speedwell (R) (persian speedwell [8]): 3 (Herbicidal rate of 40% or more and less than 70%)
- Herbicidal effect on C: oval-leafed pondweed (grade 0-5) (oval-leafed pondweed): 0 (Herbicidal rate of 5% or less (almost no effect))
- effect on barnyard grass (H) (barnyard grass [9]): 0 (Herbicidal rate of 5% or less (almost no effect))
- herbicidal effect on H (barnyard grass), rating 0-5 (barnyard grass [10]): 3 (Herbicidal rate of 40% or more and less than 70%)
- effect on lambsquarters (O) (lambsquarters [11]): 3 (Herbicidal rate of 40% or more and less than 70%)
- herbicidal effect rating, K: Italian ryegrass (Italian ryegrass [12]): 0 (Herbicidal rate of 5% or less (almost no effect))
- herbicidal effect rating, M: velvetleaf (velvetleaf [13]): 0 (Herbicidal rate of 5% or less (almost no effect))
- herbicidal effect on E (rice flat sedge), rating 0-5 (rice flat sedge): 1 (Herbicidal rate of 5% or more and less than 20%)
- herbicidal effect rating, F: southern crabgrass (southern crabgrass [14]): 0 (Herbicidal rate of 5% or less (almost no effect))
- effect on green foxtail (G) (green foxtail [15]): 0 (Herbicidal rate of 5% or less (almost no effect))
- herbicidal effect rating, H: barnyard grass (barnyard grass [16]): 0 (Herbicidal rate of 5% or less (almost no effect))
- herbicidal effect rating, L: windgrass (windgrass [17]): 0 (Herbicidal rate of 5% or less (almost no effect))
- herbicidal effect rating, J: blackgrass (blackgrass [18]): 0 (Herbicidal rate of 5% or less (almost no effect))
- herbicidal effect rating, P: chickweed (chickweed): 0 (Herbicidal rate of 5% or less (almost no effect))
- herbicidal effect on D (Chinese sprangletop), rating 0-5 (Chinese sprangletop): 3 (Herbicidal rate of 40% or more and less than 70%)
- Herbicidal effect on B: Japanese bulrush (grade 0-5) (Japanese bulrush): 0 (Herbicidal rate of 5% or less (almost no effect))
- effect on wild oat (I) (wild oat [19]): 0 (Herbicidal rate of 5% or less (almost no effect))
- herbicidal effect rating, I: wild oat (wild oat [20]): 0 (Herbicidal rate of 5% or less (almost no effect))
- herbicidal effect rating, R: persian speedwell (persian speedwell [21]): 0 (Herbicidal rate of 5% or less (almost no effect))
